Reference: patent US20250296971A1, “GASTRIC INHIBITORY PEPTIDE RECEPTOR LIGANDS” (priority 2021, published 2025)
*1 amine or outer side, *2 acyl side, *3 side chain or, on linkers, in order; H or OH if unused. Where a SMILES comes first, the peptide text is derived from it. Bridges are numbered along the chain shown (N, C = ends). [ ]: non-standard residue; d: D form. The star is where a group is joined. X5 = NC(=O)[C@H](CCCCNC(=O)CN1CCN(CC(=O)O)CCN(CC(=O)O)CCN(CC(=O)O)CC1)NC(=O)CCC(=O)NCCCOCCOCCOCCCN*; X25 = NC(=O)C(CCCCNC(=O)CN1CCN(CC(=O)O)CCN(CC(=O)O)CCN(CC(=O)O)CC1)NC(=O)CCC(=O)NCCCOCCOCCOCCCN*; NMeW = CN[C@@H](Cc1c[nH]c2ccccc12)C(=O)O; 1Nal = N[C@@H](Cc1cccc2ccccc12)C(=O)O; 2Nal = N[C@@H](Cc1ccc2ccccc2c1)C(=O)O; mXylylene = c1cc(C[*:1])cc(C[*:2])c1; NMeL = CN[C@@H](CC(C)C)C(=O)O; Suc = O=C(CCC(=O)[*:2])[*:1]; NMeC = CN[C@@H](CS)C(=O)O; Aib = CC(C)(N)C(=O)O

Target: T1, GIPR (CHO-K1-hGIPR cells) (Homo sapiens, UniProt P48546)
T1 construct: host or cells: CHO-K1
T1 sequence (P48546 22-466): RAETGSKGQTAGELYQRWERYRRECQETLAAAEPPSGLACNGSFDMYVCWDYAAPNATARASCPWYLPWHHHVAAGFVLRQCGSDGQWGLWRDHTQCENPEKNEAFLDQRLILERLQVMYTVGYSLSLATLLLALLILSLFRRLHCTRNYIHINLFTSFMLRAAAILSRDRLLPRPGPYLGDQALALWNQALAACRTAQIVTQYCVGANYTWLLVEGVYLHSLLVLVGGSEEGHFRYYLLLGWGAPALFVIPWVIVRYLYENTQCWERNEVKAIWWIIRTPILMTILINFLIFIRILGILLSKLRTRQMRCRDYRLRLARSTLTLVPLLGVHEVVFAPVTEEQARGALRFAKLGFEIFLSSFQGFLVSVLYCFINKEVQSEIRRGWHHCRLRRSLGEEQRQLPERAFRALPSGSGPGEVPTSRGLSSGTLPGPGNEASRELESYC
Test: FACS binding assay
Conditions: competition with 20 nM GIP-057, 4° C. for 1 hour, read-out: pIC50 Category (converted)
Procedure, shortened: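 Median fluorescence in the APC channel, measured on washed CHO-K1 cells overexpressing human GIPR, was fitted by four-parameter logistic regression against peptide concentration to yield EC50 or IC50 values. Secondary labelling used APC-streptavidin (1 μg/mL, 30 min, ice).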

SMILES	IC50
CC[C@H](C)[C@@H]1NC(=O)[C@H](CC(C)C)NC(=O)[C@@H](C)NC(=O)[C@@H](NC(=O)[C@@H](CC(C)C)NC(=O)[C@H](CCC(=O)O)NC(=O)[C@@H]2CCCN2C(=O)[C@H](Cc2c[nH]c3ccccc23)NC(=O)[C@H](Cc2c[nH]c3ccccc23)NC(=O)CCC(=O)O)CSCc2cccc(c2)CSC[C@@H](C(=O)NCCCOCCOCCOCCCNC(=O)CCC(=O)N[C@@H](CCCCNC(=O)CN2CCN(CC(=O)O)CCN(CC(=O)O)CCN(CC(=O)O)CC2)C(N)=O)NC1=O [GIP-288, HO-Succinyl-Trp-Trp-Pro-Glu-leu-[Cys(3MeBn)-ala-Leu-Ile-Cys]-Ttds-Lys(DOTA)-NH2] (Suc-WWPE[dL]C[dA]LIC-X5; linker 6-10 via mXylylene)	> 1 µM
CC[C@H](C)[C@@H]1NC(=O)[C@H](CC(C)C)NC(=O)C(C)(C)NC(=O)[C@@H](NC(=O)[C@H](CC(C)C)NC(=O)[C@H](CCC(=O)O)NC(=O)[C@@H]2CCCN2C(=O)[C@H](Cc2c[nH]c3ccccc23)N(C)C(=O)[C@H](Cc2c[nH]c3ccccc23)NC(=O)[C@H](CC(=O)O)NC(C)=O)CSCc2cccc(c2)CSC[C@@H](C(=O)NCCCOCCOCCOCCCNC(=O)CCC(=O)N[C@@H](CCCCNC(=O)CN2CCN(CC(=O)O)CCN(CC(=O)O)CCN(CC(=O)O)CC2)C(N)=O)NC1=O [GIP-289, Ac-Asp-Trp-Nmw-Pro-Glu-Leu-[Cys(3MeBn)-Aib-Leu-Ile-Cys]-Ttds-Lys(DOTA)-NH2] (Ac-DW[NMeW]PELC[Aib]LIC-X5; linker 7-11 via mXylylene)	> 1 µM
CC[C@H](C)[C@@H]1NC(=O)[C@H](CC(C)C)NC(=O)C(C)(C)NC(=O)[C@@H](NC(=O)[C@H](CC(C)C)N(C)C(=O)[C@H](CCC(=O)O)NC(=O)[C@@H]2CCCN2C(=O)[C@H](Cc2c[nH]c3ccccc23)NC(=O)[C@H](Cc2c[nH]c3ccccc23)NC(=O)[C@H](CC(=O)O)NC(C)=O)CSCc2cccc(c2)CSC[C@@H](C(=O)NCCCOCCOCCOCCCNC(=O)CCC(=O)N[C@@H](CCCCNC(=O)CN2CCN(CC(=O)O)CCN(CC(=O)O)CCN(CC(=O)O)CC2)C(N)=O)NC1=O [GIP-290, Ac-Asp-Trp-Trp-Pro-Glu-Nml-[Cys(3MeBn)-Aib-Leu-Ile-Cys]-Ttds-Lys(DOTA)-NH2] (Ac-DWWPE[NMeL]C[Aib]LIC-X5; linker 7-11 via mXylylene)	> 1 µM
CC[C@H](C)[C@@H]1NC(=O)[C@H](CC(C)C)NC(=O)C(C)(C)NC(=O)[C@@H](N(C)C(=O)[C@H](CC(C)C)NC(=O)[C@H](CCC(=O)O)NC(=O)[C@@H]2CCCN2C(=O)[C@H](Cc2c[nH]c3ccccc23)NC(=O)[C@H](Cc2c[nH]c3ccccc23)NC(=O)[C@H](CC(=O)O)NC(C)=O)CSCc2cccc(c2)CSC[C@@H](C(=O)NCCCOCCOCCOCCCNC(=O)CCC(=O)N[C@@H](CCCCNC(=O)CN2CCN(CC(=O)O)CCN(CC(=O)O)CCN(CC(=O)O)CC2)C(N)=O)NC1=O [GIP-291, Ac-Asp-Trp-Trp-Pro-Glu-Leu-[Nmc(3MeBn)-Aib-Leu-Ile-Cys]-Ttds-Lys(DOTA)-NH2] (Ac-DWWPEL[NMeC][Aib]LIC-X5; linker 7-11 via mXylylene)	> 1 µM
CC[C@H](C)[C@@H]1NC(=O)[C@H](CC(C)C)NC(=O)C(C)(C)NC(=O)[C@@H](NC(=O)[C@H](CC(C)C)NC(=O)[C@H](CCC(=O)O)NC(=O)[C@@H]2CCCN2C(=O)[C@H](Cc2c[nH]c3ccccc23)NC(=O)[C@H](Cc2c[nH]c3ccccc23)NC(=O)[C@H](CC(=O)O)NC(C)=O)CSCc2cccc(c2)CSC[C@@H](C(=O)NCCCOCCOCCOCCCNC(=O)CCC(=O)N[C@@H](CCCCNC(=O)CN2CCN(CC(=O)O)CCN(CC(=O)O)CCN(CC(=O)O)CC2)C(N)=O)N(C)C1=O [GIP-292, Ac-Asp-Trp-Trp-Pro-Glu-Leu-[Cys(3MeBn)-Aib-Leu-Ile-Nmc]-Ttds-Lys(DOTA)-NH2] (Ac-DWWPELC[Aib]LI[NMeC]-X5; linker 7-11 via mXylylene)	> 1 µM
CC[C@H](C)[C@@H]1NC(=O)[C@H](CC(C)C)NC(=O)C(C)(C)NC(=O)[C@@H](NC(=O)[C@H](CC(C)C)NC(=O)[C@H](CCC(=O)O)NC(=O)[C@@H]2CCCN2C(=O)[C@H](Cc2c[nH]c3ccccc23)NC(=O)[C@H](Cc2cccc3ccccc23)NC(=O)[C@H](CC(=O)O)NC(C)=O)CSCc2cccc(c2)CSC[C@@H](C(=O)NCCCOCCOCCOCCCNC(=O)CCC(=O)N[C@@H](CCCCNC(=O)CN2CCN(CC(=O)O)CCN(CC(=O)O)CCN(CC(=O)O)CC2)C(N)=O)NC1=O [GIP-293, Ac-Asp-1Ni-Trp-Pro-Glu-Leu-[Cys(3MeBn)-Aib-Leu-Ile-Cys]-Ttds-Lys(DOTA)-NH2] (Ac-D[1Nal]WPELC[Aib]LIC-X5; linker 7-11 via mXylylene)	> 1 µM
CC[C@H](C)[C@@H]1NC(=O)[C@H](CC(C)C)NC(=O)C(C)(C)NC(=O)[C@@H](NC(=O)[C@H](CC(C)C)NC(=O)[C@H](CCC(=O)O)NC(=O)[C@@H]2CCCN2C(=O)[C@H](Cc2ccc3ccccc3c2)NC(=O)[C@H](Cc2c[nH]c3ccccc23)NC(=O)[C@H](CC(=O)O)NC(C)=O)CSCc2cccc(c2)CSC[C@@H](C(=O)NCCCOCCOCCOCCCNC(=O)CCC(=O)NC(CCCCNC(=O)CN2CCN(CC(=O)O)CCN(CC(=O)O)CCN(CC(=O)O)CC2)C(N)=O)NC1=O (stereo partly drawn) [GIP-294, Ac-Asp-Trp-2Ni-Pro-Glu-Leu-[Cys(3MeBn)-Aib-Leu-Ile-Cys]-Ttds-Lys(DOTA)-NH2] (Ac-DW[2Nal]PELC[Aib]LIC-X25; linker 7-11 via mXylylene)	> 1 µM
